In patent publication US20240002391A1, “4-ALKOXYPYRROLO[2,1-F][1,2,4]TRIAZINES AND PREPARATION AND USES THEREOF” (BioSplice Therapeutics, Inc., priority 2022, published 2024) one finds IC50 data, which are given here for 27 compounds.

The target of the experiment is recombinant DYRK1A kinase (Homo sapiens (Human), UniProt Q13627). The experiment is described as follows: DYRK1A kinase assay (Ser/Thr 18 peptide Z-lyte FRET). The experiment is classed as biochemical. To be noted: DYRK1A kinase activity, Z-lyte Ser/Thr 18 peptide, 15 μM ATP; method text calls the value IC50; read-out: EC50 (the source's name). The method, boiled down: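 Z-lyte FRET: recombinant DYRK1A 0.25 μg/mL, ATP 15 μM, Ser/Thr 18 peptide 4 μM, with compound (11-point 1:3, 10 μM top) 1 h at room temperature, then development reagent 1 h. Coumarin/fluorescein emission ratio converted to % phosphorylation; IC50 by non-linear regression, duplicates.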

Turning to `c1cnc2cc(-c3ccn4nc(NC5CCC6(CC5)COC6)nc(OC5COC5)c34)ccc2n1` [Compound 1138, 4-(Oxetan-3-yloxy)-5-(quinoxalin-6-yl)-N-(2-oxaspiro[3.5]nonan-7-yl)pyrrolo[2,1-f][1,2,4]triazin-2-amine], the IC50 stood at 3.3 nM.

Consider `COc1nc(N[C@@H]2CCN(C3COC3)CC2(F)F)nn2ccc(-c3ccc4nc(C)n(CC(F)F)c4c3)c12` [Compound 142, (R)—N-(3,3-Difluoro-1-(oxetan-3-yl)piperidin-4-yl)-5-(1-(2,2-difluoroethyl)-2-methyl-1H-benzo[d]imidazol-6-yl)-4-methoxypyrrolo[2,1-f][1,2,4]triazin-2-amine], for which the IC50 was 2.7 nM.

`COc1nc(N[C@H]2CC[C@](C)(O)CC2)nn2ccc(-c3ccn4ncnc4c3)c12` [Compound 554, (1r,4r)-4-((5-([1,2,4]Triazolo[1,5-a]pyridin-7-yl)-4-methoxypyrrolo[2,1-f][1,2,4]triazin-2-yl)amino)-1-methylcyclohexan-1-ol]: the IC50 amounted to 7.7 nM.

With `COc1nc(N[C@H]2C[C@@H](OCCO)C2)nn2ccc(-c3ccc4nccnc4c3)c12` [Compound 329, 2-(cis-3-((4-Methoxy-5-(quinoxalin-6-yl)pyrrolo[2,1-f][1,2,4]triazin-2-yl)amino)cyclobutoxy)ethan-1-ol], the IC50 turned out to be 1.9 nM.

Consider `COc1nc(NC23CCC(O)(CC2)C3)nn2ccc(-c3ccc4nnn(CC(F)F)c4c3)c12` [Compound 798, 4-((5-(1-(2,2-Difluoroethyl)-1H-benzo[d][1,2,3]triazol-6-yl)-4-methoxypyrrolo[2,1-f][1,2,4]triazin-2-yl)amino)bicyclo[2.2.1]heptan-1-ol], for which the IC50 is 0.3 nM.

Turning to `COc1nc(N[C@@H]2CN(C(C)=O)C[C@@H]2F)nn2ccc(-c3ccc4nnn(CCF)c4c3)c12` [Compound 660, 1-((3S,4R)-3-Fluoro-4-((5-(1-(2-fluoroethyl)-1H-benzo[d][1,2,3]triazol-6-yl)-4-methoxypyrrolo[2,1-f][1,2,4]triazin-2-yl)amino)pyrrolidin-1-yl)ethan-1-one], the IC50 is < 0.2 nM.

As for `CNC(=O)C12CC(Nc3nc(OC)c4c(-c5ccc6nnn(C)c6c5)ccn4n3)(C1)C2` [Compound 226, 3-((4-Methoxy-5-(1-methyl-1H-benzo[d][1,2,3]triazol-6-yl)pyrrolo[2,1-f][1,2,4]triazin-2-yl)amino)-N-methylbicyclo[1.1.1]pentane-1-carboxamide], the IC50 is 3.2 nM.

With `COc1nc(N[C@H]2CCN(C3(C#N)COC3)C[C@H]2F)nn2ccc(-c3ccc4nnn(C(C)C)c4c3)c12` [Compound 690, 3-((3R,4S)-3-fluoro-4-((5-(1-isopropyl-1H-benzo[d][1,2,3]triazol-6-yl)-4-methoxypyrrolo[2,1-f][1,2,4]triazin-2-yl)amino)piperidin-1-yl)oxetane-3-carbonitrile], the IC50 was found to be 7.8 nM.

Take `CCC(=O)N1CC[C@H](Nc2nc(OC)c3c(-c4ccc5nnn(CCF)c5c4)ccn3n2)[C@H](F)C1` [Compound 1143, 1-((3R,4S)-3-Fluoro-4-((5-(1-(2-fluoroethyl)-1H-benzo[d][1,2,3]triazol-6-yl)-4-methoxypyrrolo[2,1-f][1,2,4]triazin-2-yl)amino)piperidin-1-yl)propan-1-one]: the IC50 was found to be 1.8 nM.

`COCCO[C@H]1CC[C@H](Nc2nc(OC)c3c(-c4ccc5nccn5c4)ccn3n2)CC1` [Compound 52, 5-(Imidazo[1,2-a]pyridin-6-yl)-4-methoxy-N-(trans-4-(2-methoxyethoxy)cyclohexyl)pyrrolo[2,1-f][1,2,4]triazin-2-amine]: the IC50 was 5.2 nM.

Take `COc1nc(N[C@H]2CCN(CC(C)(C)O)C[C@H]2F)nn2cc(F)c(-c3ccc4ncccc4c3)c12` [Compound 1058, 1-((3R,4S)-3-Fluoro-4-((6-fluoro-4-methoxy-5-(quinolin-6-yl)pyrrolo[2,1-f][1,2,4]triazin-2-yl)amino)piperidin-1-yl)-2-methylpropan-2-ol]: the IC50 was 2.3 nM.

Regarding `COc1nc(N[C@H]2CCN(CC(C)(C)C#N)C[C@H]2F)nn2ccc(-c3ccc4nnn(CC(F)F)c4c3)c12` [Compound 757, 3-((3R,4S)-4-((5-(1-(2,2-Difluoroethyl)-1H-benzo[d][1,2,3]triazol-6-yl)-4-methoxypyrrolo[2,1-f][1,2,4]triazin-2-yl)amino)-3-fluoropiperidin-1-yl)-2,2-dimethylpropanenitrile], the IC50 amounted to 36.7 nM.

For the compound `CNC(=O)[C@]1(C)C[C@@H](Nc2nc(OC)c3c(-c4ccc5ncccc5c4)ccn3n2)C1` [Compound 1038, trans-3-((4-Methoxy-5-(quinolin-6-yl)pyrrolo[2,1-f][1,2,4]triazin-2-yl)amino)-N,1-dimethylcyclobutane-1-carboxamide], the IC50 is 0.5 nM.

On to `COc1nc(N[C@H]2CCN(CCO)C[C@H]2F)nn2ccc(-c3cc(F)c4nc(C)n(CC(F)F)c4c3)c12` [Compound 519, 2-((3R,4S)-4-((5-(1-(2,2-Difluoroethyl)-4-fluoro-2-methyl-1H-benzo[d]imidazol-6-yl)-4-methoxypyrrolo[2,1-f][1,2,4]triazin-2-yl)amino)-3-fluoropiperidin-1-yl)ethan-1-ol], for which the IC50 was 2.7 nM.

For the compound `COc1nc(N[C@@H]2CN(C)C[C@@H]2F)nn2ccc(-c3ccc4nccnc4c3)c12` [Compound 350, N-((3R,4S)-4-Fluoro-1-methylpyrrolidin-3-yl)-4-methoxy-5-(quinoxalin-6-yl)pyrrolo[2,1-f][1,2,4]triazin-2-amine], the IC50 was found to be 1.4 nM.

In the case of `COc1nc(N[C@H]2CCN(C3COC3)C[C@H]2F)nn2ccc(-c3ccc4nnn(CCF)c4c3)c12` [Compound 666, N-((3R,4S)-3-Fluoro-1-(oxetan-3-yl)piperidin-4-yl)-5-(1-(2-fluoroethyl)-1H-benzo[d][1,2,3]triazol-6-yl)-4-methoxypyrrolo[2,1-f][1,2,4]triazin-2-amine], the IC50 was found to be 1.1 nM.

As for `CNC(=O)c1cnc2ccc(-c3ccn4nc(N[C@H]5CC[C@](C)(O)CC5)nc(OC)c34)cn12` [Compound 441, 6-(2-(((1r,4r)-4-Hydroxy-4-methylcyclohexyl)amino)-4-methoxypyrrolo[2,1-f][1,2,4]triazin-5-yl)-N-methylimidazo[1,2-a]pyridine-3-carboxamide], the IC50 came out at 1.1 nM.

For `CCN1CC[C@H](Nc2nc(OC)c3c(-c4ccc5nnn(CC(F)F)c5c4)ccn3n2)[C@H](F)C1` [Compound 755, 5-(1-(2,2-Difluoroethyl)-1H-benzo[d][1,2,3]triazol-6-yl)-N-((3R,4S)-1-ethyl-3-fluoropiperidin-4-yl)-4-methoxypyrrolo[2,1-f][1,2,4]triazin-2-amine], the IC50 is 2.3 nM.

As to `[2H]C([2H])([2H])Oc1nc(N[C@@H]2CN(C(C)=O)C[C@@H]2F)nn2ccc(-c3ccc4nccnc4c3)c12` [Compound 353, 1-((3S,4R)-3-Fluoro-4-((4-(methoxy-d3)-5-(quinoxalin-6-yl)pyrrolo[2,1-f][1,2,4]triazin-2-yl)amino)pyrrolidin-1-yl)ethan-1-one], the IC50 worked out at 2.2 nM.

Regarding `COc1nc(N[C@H]2CC[C@](C)(O)CC2)nn2ccc(-c3ccc4nnn(/C=C/F)c4c3)c12` [Compound 672, (1r,4r)-4-((5-(1-((E)-2-fluorovinyl)-1H-benzo[d][1,2,3]triazol-6-yl)-4-methoxypyrrolo[2,1-f][1,2,4]triazin-2-yl)amino)-1-methylcyclohexan-1-ol], the IC50 was found to be 5.9 nM.

`COc1nc(N[C@@H]2CCN(C(C)=O)CC2(F)F)nn2ccc(-c3cc(F)c4nc(C)n(C(C)C)c4c3)c12` [Compound 550, (R)-1-(3,3-Difluoro-4-((5-(4-fluoro-1-isopropyl-2-methyl-1H-benzo[d]imidazol-6-yl)-4-methoxypyrrolo[2,1-f][1,2,4]triazin-2-yl)amino)piperidin-1-yl)ethan-1-one]: the IC50 was 1.6 nM.

In the case of `COc1nc(N[C@H]2CC[C@](C)(O)CC2)nn2ccc(-c3cc4cnccc4[nH]3)c12` [Compound 282, trans-4-((4-Methoxy-5-(1H-pyrrolo[3,2-c]pyridin-2-yl)pyrrolo[2,1-f][1,2,4]triazin-2-yl)amino)-1-methylcyclohexan-1-ol], the IC50 was determined as 13.6 nM.

Regarding `COCC(=O)N[C@]1(C)C[C@H](Nc2nc(OC)c3c(-c4ccc5nccnc5c4)ccn3n2)C1` [Compound 336, 2-Methoxy-N-(cis-3-((4-methoxy-5-(quinoxalin-6-yl)pyrrolo[2,1-f][1,2,4]triazin-2-yl)amino)-1-methylcyclobutyl)acetamide], the IC50 is 1.3 nM.

Regarding `COc1nc(N[C@H]2C[C@](C)(N)C2)nn2ccc(-c3ccn4nccc4c3)c12` [Compound 94, trans-N1-(4-Methoxy-5-(pyrazolo[1,5-a]pyridin-5-yl)pyrrolo[2,1-f][1,2,4]triazin-2-yl)-3-methylcyclobutane-1,3-diamine], the IC50 was determined as 4.1 nM.

`COc1nc(N[C@H]2C[C@@](C)(NC(C)=O)C2)nn2ccc(-c3ccc4ncnn4c3)c12` [Compound 191, N-(cis-3-((5-([1,2,4]Triazolo[1,5-a]pyridin-6-yl)-4-methoxypyrrolo[2,1-f][1,2,4]triazin-2-yl)amino)-1-methylcyclobutyl)acetamide]: the IC50 was 5.3 nM.

As to `COc1nc(N[C@H]2C[C@@](C)(NC(C)=O)C2)nn2ccc(-c3ccc4nnn(CC(F)F)c4c3)c12` [Compound 702, N-((1s,3s)-3-((5-(1-(2,2-Difluoroethyl)-1H-benzo[d][1,2,3]triazol-6-yl)-4-methoxypyrrolo[2,1-f][1,2,4]triazin-2-yl)amino)-1-methylcyclobutyl)acetamide], the IC50 was found to be 1.2 nM.

Regarding `COc1nc(N[C@@H]2CCN(C)CC2(F)F)nn2ccc(-c3ccc4nnn(C)c4c3)c12` [Compound 626, (R)—N-(3,3-Difluoro-1-methylpiperidin-4-yl)-4-methoxy-5-(1-methyl-1H-benzo[d][1,2,3]triazol-6-yl)pyrrolo[2,1-f][1,2,4]triazin-2-amine], the IC50 turned out to be 2.7 nM.
